Test results from EP2975030B1, “DIHYDROPYRIDAZINE-3,5-DIONE DERIVATIVE” (Chugai Seiyaku Kabushiki Kaisha, priority 2013, dated 2014).

Key:
[1] = system: rat small-intestinal brush border membrane vesicles; assay: Inhibitory effect on 33PO4 uptake into rat small-intestinal brush border membrane vesicles (rapid filtration method); format: biochemical, Wistar female rat; conditions: 1 µM test compound; 33PO4 uptake into rat small-intestinal BBMVs, 60 seconds
Method in brief: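 Uptake was terminated by ice-cold 110 mM NaCl, 1 mM KH2PO4, 10 mM HEPES (pH 7.5) buffer and immediate suction filtration, then washing. Using rat small-intestinal BBMVs, retained 33PO4 was quantified by liquid scintillation counting as transport activity.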

[2] = system: adenine-induced renal failure rat; assay: Suppressive effect on rise in serum phosphorus concentration of adenine-induced renal failure rat (0.1% in feed, 3 days); format: in vivo, Wistar male rat; conditions: feed or water, 72 h, rate of suppression of a rise in serum phosphorus concentration, 0.1% of mass concentration in feed
Source text: Test Example 5: Suppressive effect on rise in serum phosphorus concentration of adenine-induced renal failure rat Adenine was forcedly administered orally to each Wistar male rat (7-8 weeks old) to impair renal functions and thereby prepare a hyperphosphatemia model ([…], Nagano N, Burke SK, Fukushima N. Sevelamer hydrochloride prevents ectopic calcification and renal osteodystrophy in chronic renal failure rats. Kidney Int. 2003 Aug; 64 (2): 441-50). Each test compound was mixed at a ratio of 0.1% of mass concentration with feed. The animal was fed with a given amount of the feed for 3 days. A group given feed non-supplemented with a test compound was used as a reference pathological group, and an adenine-unadministered group given feed non-supplemented with a test compound was used as a normal group. 3 days after the start of administration of the test compound, blood was collected from the jugular vein, and serum was collected. Serum phosphorus concentrations were measured by the Fiske-Subbarow method. The rate of suppression of a rise in serum phosphorus concentration was determined according to the following expression: Rate (%) of suppression of a rise in serum phosphorus concentration = (1-[([…]-treatedpathologicalgroup); -(Serumphosphorusconcentrationofthenormalgroup)]/; [(Serumphosphorusconcentrationofthereferencepathologicalgroup)-(Serumphosphorusconcentrationofthenormalgroup)]) × 100 [formula] As a result, each test compound was confirmed to have a suppressive effect on a rise in serum phosphorus concentration. […]

Compound | Rate of uptake inhibition (%) (1 µM) [1] | inhibition in vivo at 0.1 %, 0.1 % in feed [2] [%]
COCCN(C)CCOc1ccc(CN2C(=O)C(C(=O)Nc3ccc(C(F)(F)F)cc3-c3cc(C(F)(F)F)ncn3)=C(O)C3(CCC3)N2C)c(F)c1F [Example 13, 6-[[2,3-Difluoro-4-[2-[2-methoxyethyl(methyl)amino]ethoxy]phenyl]methyl]-9-hydroxy-5-methyl-7-oxo-N-[4-(trifluoromethyl)-2-[6-(trifluoromethyl)pyrimidin-4-yl]phenyl]-5,6-diazaspiro[3.5]non-8-ene-8-carboxamide] | 58 | 25
COCCN(C)CCOc1ccc(CN2C(=O)C(C(=O)Nc3ccc(C(F)(F)F)cc3-c3cc(C(F)(F)F)ncn3)=C(O)C3(CCCC3)N2C)c(F)c1F [Example 14, 7-[[2,3-Difluoro-4-[2-[2-methoxyethyl(methyl)amino]ethoxy]phenyl]methyl]-10-hydroxy-6-methyl-8-oxo-N-[4-(trifluoromethyl)-2-[6-(trifluoromethyl)pyrimidin-4-yl]phenyl]-6,7-diazaspiro[4.5]dec-9-ene-9-carboxamide] | 29 | 39
Cc1c(C#N)ncnc1-c1cc(C(F)(F)F)ccc1NC(=O)C1=C(O)[C@@]2(C)CCCN2N(Cc2ccc(OCCN3CCOCC3)c(F)c2F)C1=O [Example 22, (4aR)-N-[2-(6-Cyano-5-methylpyrimidin-4-yl)-4-(trifluoromethyl)phenyl]-1-[[2,3-difluoro-4-(2-morpholin-4-ylethoxy)phenyl]methyl]-4-hydroxy-4a-methyl-2-oxo-6,7-dihydro-5H-pyrrolo[1,2-b]pyridazine-3-carboxamide] | 50 | 26
C[C@]12CCCN1N(Cc1ccc(C#CCCCC(=O)O)c(F)c1F)C(=O)C(C(=O)Nc1ccc(C(F)(F)F)cc1-c1cc(C(F)(F)F)ncn1)=C2O [Example 129, 6-[4-[[(4aR)-4-Hydroxy-4a-methyl-2-oxo-3-[[4-(trifluoromethyl)-2-[6-(trifluoromethyl)pyrimidin-4-yl]phenyl]carbamoyl]-6,7-dihydro-5H-pyrrolo[1,2-b]pyridazin-1-yl]methyl]-2,3-difluorophenyl]hex-5-ynoic acid] | 63 | 17
C[C@]12CCCN1N(Cc1ccc(C#CCN3CCOCC3)c(F)c1F)C(=O)C(C(=O)Nc1ccc(C(F)(F)F)cc1-c1ccc(C(F)(F)F)nc1)=C2O [Example 140, (4aR)-1-[[2,3-Difluoro-4-(3-morpholin-4-ylprop-1-ynyl)phenyl]methyl]-4-hydroxy-4a-methyl-2-oxo-N-[4-(trifluoromethyl)-2-[6-(trifluoromethyl)pyridin-3-yl]phenyl]-6,7-dihydro-5H-pyrrolo[1,2-b]pyridazine-3-carboxamide] | 77 | 39
C[C@]12CCCN1N(Cc1ccc(OCCCOC[C@H](O)CO)c(F)c1F)C(=O)C(C(=O)Nc1ccc(C(F)(F)F)cc1-c1ccc(C(F)(F)F)nc1)=C2O [Example 147, (4aR)-1-[[4-[3-[(2R)-2,3-Dihydroxypropoxy]propoxy]-2,3-difluorophenyl]methyl]-4-hydroxy-4a-methyl-2-oxo-N-[4-(trifluoromethyl)-2-[6-(trifluoromethyl)pyridin-3-yl]phenyl]-6,7-dihydro-5H-pyrrolo[1,2-b]pyridazine-3-carboxamide] | 57 | 35
C[C@]12CCCN1N(Cc1ccc(OCCCCOC[C@H](O)CO)c(F)c1F)C(=O)C(C(=O)Nc1ccc(C(F)(F)F)cc1-c1cc(C(F)(F)F)ncn1)=C2O [Example 152, (4aR)-1-[[4-[4-[(2R)-2,3-Dihydroxypropoxy]butoxy]-2,3-difluorophenyl]methyl]-4-hydroxy-4a-methyl-2-oxo-N-[4-(trifluoromethyl)-2-[6-(trifluoromethyl)pyrimidin-4-yl]phenyl]-6,7-dihydro-5H-pyrrolo[1,2-b]pyridazine-3-carboxamide] | 54 | 26
C[C@]12CCCN1N(Cc1ccc(OCCCCCCOC[C@H](O)CO)c(F)c1F)C(=O)C(C(=O)Nc1cnc(C(F)(F)F)nc1-c1ccc(C(F)(F)F)nc1)=C2O [Example 156, (4aR)-1-[[4-[6-[(2R)-2,3-Dihydroxypropoxy]hexoxy]-2,3-difluorophenyl]methyl]-4-hydroxy-4a-methyl-2-oxo-N-[2-(trifluoromethyl)-4-[6-(trifluoromethyl)pyridin-3-yl]pyrimidin-5-yl]-6,7-dihydro-5H-pyrrolo[1,2-b]pyridazine-3-carboxamide] | 59 | 21
C[C@]12CCCN1N(Cc1ccc(OCCN3CCOCC3)c(F)c1F)C(=O)C(C(=O)Nc1ccc(C(F)(F)F)cc1-c1cc(C(F)(F)F)ncn1)=C2O [Example 157, (4aR)-1-[[2,3-Difluoro-4-(2-morpholin-4-ylethoxy)phenyl]methyl]-4-hydroxy-4a-methyl-2-oxo-N-[4-(trifluoromethyl)-2-[6-(trifluoromethyl)pyrimidin-4-yl]phenyl]-6,7-dihydro-5H-pyrrolo[1,2-b]pyridazine-3-carboxamide] | 89 | 30
C[C@]12CCCN1N(Cc1ccc(CN3CCOCC3)c(F)c1F)C(=O)C(C(=O)Nc1ccc(C(F)(F)F)cc1-c1ccc(C(F)(F)F)nc1)=C2O.Cl [Example 164, (4aR)-1-[[2,3-Difluoro-4-(morpholin-4-ylmethyl)phenyl]methyl]-4-hydroxy-4a-methyl-2-oxo-N-[4-(trifluoromethyl)-2-[6-(trifluoromethyl)pyridin-3-yl]phenyl]-6,7-dihydro-5H-pyrrolo[1,2-b]pyridazine-3-carboxamide; hydrochloride] | 64 | 14
C[C@]12CCCN1N(Cc1cccc(Cl)c1F)C(=O)C(C(=O)Nc1cc(F)c(Br)c(F)c1)=C2O [Example 196, (4aR)-N-(4-Bromo-3,5-difluorophenyl)-1-[(3-chloro-2-fluorophenyl)methyl]-4-hydroxy-4a-methyl-2-oxo-6,7-dihydro-5H-pyrrolo[1,2-b]pyridazine-3-carboxamide] | 90 | 35
CN1[C@@H](C(C)(C)C)C(O)=C(C(=O)Nc2ccc(C(F)(F)F)cc2-c2cc(C(F)(F)F)ncn2)C(=O)N1Cc1ccc(OCCN2CCOCC2)c(F)c1F [Example 264, (3S)-3-tert-Butyl-1-[[2,3-difluoro-4-(2-morpholin-4-ylethoxy)phenyl]methyl]-4-hydroxy-2-methyl-6-oxo-N-[4-(trifluoromethyl)-2-[6-(trifluoromethyl)pyrimidin-4-yl]phenyl]-3H-pyridazine-5-carboxamide] | 48 | 15
CN1[C@@H](C(C)(C)C)C(O)=C(C(=O)Nc2ccc(Cl)cc2-c2cc(C(F)(F)F)ncn2)C(=O)N1Cc1ccc(OCCN2CCOCC2)c(F)c1F [Example 265, (3S)-3-tert-Butyl-N-[4-chloro-2-[6-(trifluoromethyl)pyrimidin-4-yl]phenyl]-1-[[2,3-difluoro-4-(2-morpholin-4-ylethoxy)phenyl]methyl]-4-hydroxy-2-methyl-6-oxo-3H-pyridazine-5-carboxamide] | 52 | 11
CN1[C@@H](C(C)(C)C)C(O)=C(C(=O)Nc2ccc(Cl)cc2-c2ccc(C(F)(F)F)nc2)C(=O)N1Cc1ccc(OCCN2CCOCC2)c(F)c1F [Example 267, (3S)-3-tert-Butyl-N-[4-chloro-2-[6-(trifluoromethyl)pyridin-3-yl]phenyl]-1-[[2,3-difluoro-4-(2-morpholin-4-ylethoxy)phenyl]methyl]-4-hydroxy-2-methyl-6-oxo-3H-pyridazine-5-carboxamide] | 71 | 18
(4aR)-4a-Ethyl-1-[(3-fluorophenyl)methyl]-4-hydroxy-N-[5-methyl-2-(trifluoromethyl)furan-3-yl]-2-oxo-6,7-dihydro-5H-pyrrolo[1,2-b]pyridazine-3-carboxamide [Example 9] | 63 | –
(4aS)-1-[(2,3-Difluorophenyl)methyl]-6,6-difluoro-4-hydroxy-N-[5-methyl-2-(trifluoromethyl)furan-3-yl]-2-oxo-5,7-dihydro-4aH-pyrrolo[1,2-b]pyridazine-3-carboxamide [Example 5] | 54 | –
(4aS,5S,8R)-1-(3-Fluorobenzyl)-4-hydroxy-N-(5-methyl-2-(trifluoromethyl)furan-3-yl)-2-oxo-2,4a,5,6,7,8-hexahydro-1H-5,8-methanopyrido[1,2-b]pyridazine-3-carboxamide [Example 20] | 21 | –
